Laboratory results taken from paper PMC2726284, “Electron Crystallography Reveals Plasticity within the Drug Binding Site of the Small Multidrug Transporter EmrE” (Journal of Molecular Biology, 2008).

Experiments:
[1] = biological target: T1, EmrE (Escherichia coli, UniProt P23895); assay: [3H]TPP+ radioligand competition; exchange in 2-D crystals and cryo-EM projection map; format: binding
T1 construct: 6xHis-tagged EmrE, purified, detergent (DDM)-solubilized

[2] = biological target: T1, EmrE; assay: [3H]TPP+ radioligand competition; cryo-EM projection structure of 2-D co-crystals at […] Å; format: binding
[3] = biological target: T1, EmrE; assay: [3H]TPP+ radioligand binding to solubilized EmrE and 2-D crystals; conditions: cited from earlier work

T1 sequence (P23895 whole entry): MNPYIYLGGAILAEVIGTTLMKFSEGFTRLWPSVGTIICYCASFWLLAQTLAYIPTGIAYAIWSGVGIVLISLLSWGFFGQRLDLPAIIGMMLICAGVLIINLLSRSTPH

Structure (SMILES)	Ki [1]	further results
Cc1cc(N)c2ccccc2[n+]1CCCCCCCCCC[n+]1c(C)cc(N)c2ccccc21 [DQ^2+, dequalinium]	83 ± 9 nM	–
CC[n+]1c(-c2ccccc2)c2cc(N)ccc2c2ccc(N)cc21 [Eth^+, ethidium]	–	Ki [2]: 1000 ± 900 nM
CC[N+](C)(CC)CCC[n+]1c(-c2ccccc2)c2cc(N)ccc2c2ccc(N)cc21 [PP^2+, propidium]	19 ± 4 nM	–
c1ccc([P+](c2ccccc2)(c2ccccc2)c2ccccc2)cc1 [TPP^+, tetraphenylphosphonium]	–	Kd [3]: 2.4 nM
